Test [1] concerns the target T1, GST tagged LXRbeta LBD (ligand binding domain) (Homo sapiens, UniProt P55055).
T1 construct: purchased Invitrogen pv4658.pps
T1 sequence (P55055 222-460 limits assumed): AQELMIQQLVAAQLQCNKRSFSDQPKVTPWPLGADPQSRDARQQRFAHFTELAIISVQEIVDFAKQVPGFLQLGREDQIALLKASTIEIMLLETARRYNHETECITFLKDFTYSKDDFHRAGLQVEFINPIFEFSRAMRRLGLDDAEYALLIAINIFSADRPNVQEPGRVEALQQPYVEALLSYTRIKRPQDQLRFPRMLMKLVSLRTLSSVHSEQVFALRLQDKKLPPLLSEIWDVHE
Nature of the test: LanthaScreen TR-FRET Liver X Receptor Coactivator Assay, LXR beta-LBD. Conditions: relative to reference T0901317; for EC50: Inflection Point (potency), co-activator recruitment, read-out: LXR beta IP; for Emax: read-out: LXR beta act @ max dose (%). The test is classed as biochemical. The method, then: (§1) Potency (Inflection Point, IP) and efficacy (Emax) are evaluated via compound-induced co-activator recruitment to glutathione-S-transferase (GST) tagged LXRbeta and LXRalpha LBD (ligand binding domain) proteins in relation to reference dual agonist compound T0901317 (N-(2,2,2-Trifluoroethyl)-N-[4-[2,2,2-trifluoro-1-hydroxy-1-(trifluoromethyl)ethyl] phenyl]benzenesulfonamide) using the LanthaScreen™ TR-FRET Liver X Receptor Coactivator Assays according to manufacturer's instructions (Invitrogen catalog number pv4658.pps and pv4655). While running the LanthaScreen™ TR-FRET Liver X Receptor Coactivator Assay, LXR alpha-LBD or LXR beta-LBD was added to ligand test compounds followed by addition of a mixture of a fluorescein-labelled coactivator peptide and terbium-conjugated anti-GST antibody. After an incubation period at room temperature, TR-FRET (time-resolved fluorescence resonance energy transfer) was measured using a filter-based instrument capable of TR-FRET, e.g. PerkinElmer Envision.
For orientation: TR-FRET usually uses a lanthanide donor and a delayed reading to cut background.

In test [2] the target is T2, GST tagged LXRalpha LBD (ligand binding domain) (Homo sapiens, UniProt Q13133).
T2 construct: purchased Invitrogen pv4655
T2 sequence (Q13133 209-447 limits assumed): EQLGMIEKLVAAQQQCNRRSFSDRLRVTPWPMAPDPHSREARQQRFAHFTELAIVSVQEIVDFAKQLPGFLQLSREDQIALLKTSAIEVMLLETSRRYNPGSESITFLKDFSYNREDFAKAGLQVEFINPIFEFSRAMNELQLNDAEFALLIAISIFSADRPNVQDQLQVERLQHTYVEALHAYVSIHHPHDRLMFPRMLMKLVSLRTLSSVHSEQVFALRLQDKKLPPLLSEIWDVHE
Nature of the test: LanthaScreen TR-FRET Liver X Receptor Coactivator Assay, LXR alpha-LBD. The format is biochemical. The note with it: relative to reference T0901317; for EC50: Inflection Point (potency), co-activator recruitment, read-out: LXR alpha IP; for Emax: activity at max dose (efficacy), read-out: LXR alpha act @ max dose (%). As to the method: as §1

[3] abbreviates: activity at max dose (efficacy).

As for `CC(C)CC(O)(C(=O)N1CCC(C2CCN(c3ccc(C(=O)N(C)C)c(Cl)c3)CC2)CC1)C(F)(F)F` (stereo not drawn) [Example A-5, 2-chloro-4-{1′-[2-hydroxy-4-methyl-2-(trifluoromethyl)pentanoyl]-4,4′-bipiperidin-1-yl}-N,N-dimethylbenzamide], the EC50 in test [1] came out at 51 nM; in test [2], 869 nM. The “LXR beta act @ max dose (%)” value in test [1] (setting [3]) was determined as 113%. Moreover, in test [2], the Emax came out at 55%.
For `CN(C)C(=O)c1ccc(N2CCC(C3CCN(C(=O)C(O)(C4CCC4)C(F)(F)F)CC3)CC2)cc1Cl` (stereo not drawn) [Example A-10, 2-chloro-4-[1′-(2-cyclobutyl-3,3,3-trifluoro-2-hydroxypropanoyl)-4,4′-bipiperidin-1-yl]-N,N-dimethylbenzamide], the EC50 in test [1] came out at 30 nM; in test [2] it was 756 nM. Further, the figures for the Emax in test [1] (setting [3]) and in test [2] were 109% and 59%, respectively.
As to `C#CC(C)(C)C(=O)N1CCC(C2CCN(c3ccc(C(=O)N(C)C)c(Cl)c3)CC2)CC1` [Example A-11, 2-chloro-4-[1′-(2,2-dimethylbut-3-ynoyl)-4,4′-bipiperidin-1-yl]-N,N-dimethylbenzamide], the EC50 was 512 nM in test [1] and 2100 nM in test [2]. For the same compound, the Emax amounted to 125% in test [1] (setting [3]) and 62% in test [2].
For `CN(C)C(=O)c1ccc(N2CCC(C3CCN(C(=O)C(C)(C)c4ccccc4)CC3)CC2)cc1Cl` [Example A-12, 2-chloro-N,N-dimethyl-4-[1′-(2-methyl-2-phenylpropanoyl)-4,4′-bipiperidin-1-yl]benzamide], in that order: 14 nM, 2460 nM, 114% and 47%.
In the case of `CN(C)C(=O)c1ccc(N2CCC(C3CCN(C(=O)[C@](O)(c4ccccc4)C(F)(F)F)CC3)CC2)cc1Cl` [Example A-13, 2-chloro-N,N-dimethyl-4-{1′-[(2R)-3,3,3-trifluoro-2-hydroxy-2-phenylpropanoyl]-4,4′-bipiperidin-1-yl}benzamide], the EC50 in test [1] is 52 nM; in test [2] it was 1510 nM. Moreover, the Emax in test [1] (setting [3]) came out at 106%; in test [2], 19%.
Consider `CN(C)C(=O)c1ccc(N2CCC(C3CCN(C(=O)C4(c5ccccc5)CCC4)CC3)CC2)cc1Cl` [Example A-14, 2-chloro-N,N-dimethyl-4-{1′-[(1-phenylcyclobutyl)carbonyl]-4,4′-bipiperidin-1-yl}benzamide], for which the EC50 in test [1] came out at 36 nM; in test [2], 1530 nM. Moreover, the Emax in test [1] (setting [3]) is 114%; in test [2], 38%.
`CN(C)C(=O)c1ccc(N2CCC(C3CCN(C(=O)C45CC(C4)C5)CC3)CC2)cc1Cl` [Example A-15, 4-[1′-(bicyclo[1.1.1]pent-1-ylcarbonyl)-4,4′-bipiperidin-1-yl]-2-chloro-N,N-dimethylbenzamide]: the EC50 worked out at 314 nM in test [1] and 3130 nM in test [2]. Further, the figures for the Emax in test [1] (setting [3]) and in test [2] were 93% and 31%, respectively.
Take `CN(C)C(=O)c1ccc(N2CCC(C3CCN(C(=O)C(C)(c4ccccc4)C(F)(F)F)CC3)CC2)cc1Cl` (stereo not drawn) [Example A-16, 2-chloro-N,N-dimethyl-4-[1′-(3,3,3-trifluoro-2-methyl-2-phenylpropanoyl)-4,4′-bipiperidin-1-yl]benzamide]: the values for the EC50 in test [1] and in test [2] were 14 nM and 861 nM, respectively. Besides, the Emax was 109% in test [1] (setting [3]) and 33% in test [2].
`CN(C)C(=O)c1ccc(N2CCC(C3CCN(C(=O)C4(c5cccc(F)c5)CCC4)CC3)CC2)cc1Cl` [Example A-17, 2-chloro-4-(1′-{[1-(3-fluorophenyl)cyclobutyl]carbonyl}-4,4′-bipiperidin-1-yl)-N,N-dimethylbenzamide]: the EC50 in test [1] worked out at 204 nM; in test [2], 2260 nM. Besides, the Emax was 100% in test [1] (setting [3]) and 14% in test [2].

The values above are taken from patent US20180305332A1, “Bispiperidinyl Derivatives as Liver X Receptor Beta Agonists, Compositions, and Their Use” (Merck Sharp & Dohme Corp., priority 2015, published 2018).
